Legend:
DU145 cells [1] = test: Alkaline comet assay after ionizing radiation in DU145 cells; type: cell-based, human; details: 5 μM pretreatment 7 days, recovery 4 hrs
Description: (§1) EZH2i can be administered to sensitize CRPC cells to DNA damage repair (DDR) agents. To validate this, abl, LNCaP and DU145 cells were exposed to increasing doses of ionizing radiation (IR). […] FIG. 6A is a graphical representation of the alkaline comet assays in abl cells. Prostate cancer cells were pretreated with vehicle (DMSO) or 5 μM GSK126 (GSK) for 7 days, and then exposed to increasing dosages of ionizing radiation (IR) followed by recovery for 4 hrs. FIG. 6B is a set of photographic images of each IR dosage corresponding to the dosages in FIG. 6A. FIG. 6C is a graphical representation of the alkaline comet assays in LNCaP cells. […]
(§2) FIG. 15A is a graphical representation of the alkaline comet assay results in abl cells after pretreatment with vehicle (DMSO) or 5 μM GSK126 (GSK) for 7 days and then being exposed to 5 gray (Gy) ionizing radiation (IR) followed by recovery at indicated time points (Quantification of the results using “Olive Tail Moment” parameter). […] FIG. 15C is a graphical representation of the alkaline comet assay results in LNCaP cells after pretreatment with vehicle (DMSO) or 5 μM GSK126 (GSK) for 7 days and then being exposed to 5 gray (Gy) ionizing radiation (IR) followed by recovery at indicated time points (Quantification of the results using “Olive Tail Moment” parameter). […]

CWR22Rv1 xenografts = test: Test of EZH2 inhibitors in CWR22Rv1 xenograft mouse model; type: in vivo, castrated nude mice
Description: FIG. 1F is a growth curve of xenograft tumors in castrated nude mice injected with CWR22Rv1 cells receiving vehicle (Veh) or GSK126, at the indicated doses.
Test of EZH2 Inhibitors in Xenograft Mouse Model. Male nude mice (Taconic) were castrated after 3 days of accommodation. CWR22Rv1 xenografts were established in the flanks of mice by injecting ˜2 million cells in 50% Matrigel (BD Biosciences). […] Tumors were measured 3 times every week and harvested after 3 weeks. Frozen samples were subjected to RT-qPCR and immunoblotting to study the expression of selected genes. All animal protocols were approved by the Beth Israel Deaconess Institutional Animal Care and Use Committee, and the experiments were performed in accordance with institutional and national guidelines.

abl cells [2] = test: Alkaline comet assay after ionizing radiation in abl cells; type: cell-based, human; details: 5 μM pretreatment 7 days
Description: as §1, §2

abl cells [3] = test: Gene expression by RNA-Seq in abl cells; type: cell-based, human; details: 5 μM, 72 hrs
Description: (§3) Blue bars represent the percentage of genes in each specific functional category. The red line represents values of the false discovery rate (FDR) for the particular GO term. […] Two analyses were carried out to rule out the possible off-targeted effect of EZH2i on gene regulation. First, transcriptional profiles were compared in abl being treated with either EZH2i or in which EZH2 had been silenced using RNA interference (RNAi). Pharmacologic and genetic inhibition of EZH2 shared highly similar gene expression patterns.
(§4) Analysis of EZH2 Inhibitor Mediated Gene Expression by RNA-Seq. […] RNA-seq library was prepared using Illumina True-seq RNA sample preparation kit and sequenced to 50 bp using Illumina Hi-seq platform. RNA-seq data was mapped to human genome (hg19) using TopHat version 2.0.6. […] Differentially expressed genes were first filtered using LFC>0.5 or <−0.5, and then top 200 genes were selected through ranking by their p-values. The authentic target genes of EZH2 in abl cells were defined as those showing similar expression changes upon either EZH2 silencing or inhibitor treatment.

[4] = system: H3K27 methylation in prostate cell lines; test: Western blot of H3K27 methylation levels in prostate cell lines; type: cell-based, human; details: all tested prostate cell lines; 1 or 5 μM
Text: In view of the canonical function of EZH2 in catalyzing H3K27me3, the mechanisms of how repressive chromatin mark contribute to the growth and gene inhibitory effects of EZH2i were investigated. […] Discrepancies between EZH2i-induced H3K27me3 reduction and cell insensitivity to EZH2i were also reported in lymphoma cells.

LNCaP cells = test: Alkaline comet assay after ionizing radiation in LNCaP cells; type: cell-based, human; details: 5 μM pretreatment 7 days, recovery 4 hrs
Description: as §1, §2

[5] = system: C4-2B, LAPC4-CR and LNCaP-AI cells; test: RT-qPCR of selected genes in C4-2B, LAPC4-CR and LNCaP-AI; type: cell-based, human; details: 5 μM, 72 hrs
Text: The expression of these genes was examined in three other EZH2i-sensitive CRPC cell lines: C4-2B, LAPC4-CR and LNCaP-AI. FIG. 2D is a heat map of quantitative real-time RT-qPCR results showing changes in mRNA levels of selected gene in three prostate cancer cell lines (C4-2B, LAPC4-CR, and LNCaP-AI). […] EZH2-activated genes and EZH2-repressed genes are grouped together. […] Numbers, triplicates of samples from control or treatment group.
RNA isolation and RT-qPCR. RNA was extracted and purified using the TRIzol Reagent combined with RNeasy Mini Kit (Qiagen) according to manufacturer's protocols. 2 μg of total RNAs were then used for cDNA synthesis using High Capacity cDNA Reverse Transcription Kit (Applied Biosystems). Real-time quantitative RT-PCR was performed, and gene expression was calculated as described previously, using the formula 2-ΔΔCt relative to the level of GAPDH as the internal control.

DU145 cells [6] = test: Growth curve of DU145 cells; type: cell-based, human; details: FIG. 9A
Description: Genetic inhibition of EZH2 suppressed growth of CRPC cells better than that of androgen-dependent prostate cancer cells. As EZH2 is a druggable enzyme with available small-molecule inhibitors, the efficacy of EZH2-targeting drugs was assessed in prostate cancer cells. […] Cells were grouped based on the basic characteristics. ADPC is androgen-dependent prostate cancer, and CRPC is castration-resistant prostate cancer. Concentrations as low as 500 nM of the EZH2 inhibitors (EZH2i) greatly retarded the growth of castration-resistant abl cells. […] Relatively higher doses of EZH2i were required to suppress the androgen-dependent LNCaP cells. […] This was consistent with a previous report that neither PC3 nor DU145 requires EZH2 for continued growth.

DU145 cells [7] = test: Gene expression by RNA-Seq in DU145 cells; type: cell-based, human; details: 5 μM, 72 hrs
Description: as §3, §4

[8] = system: 668 cancer cells lines of various types; details: CTRP data, cited from earlier work

Compound	difference in sensitivity to ionizing radiation (comet assay) (DU145 cells [1])	xenograft tumor growth (CWR22Rv1 xenografts; CWR22Rv1 subcutaneous xenografts, castrated mice, daily injection, 21 days of treatment)	mRNA and protein levels of EZH2-activated genes in xenograft tumor tissues (CWR22Rv1 xenografts; CWR22Rv1 xenografts)	DNA damage repair after 5 Gy IR (Olive Tail Moment over recovery time) (abl cells [2])	sensitivity to increasing doses of ionizing radiation (comet assay) (abl cells [2]; recovery 4 hrs)	gene expression pattern in abl cells (abl cells [3])	total H3K27 di- and tri-methylation levels [4]	difference in sensitivity to ionizing radiation (comet assay) (LNCaP cells)	expression of EZH2-repressed genes [5]	inhibitory effect on growth of AR-null DU145 (DU145 cells [6])	gene expression pattern in EZH2i-insensitive DU145 cells (DU145 cells [7])	potency by EZH2 mutation status ([8]; GOF vs LOF p=0.2705, GOF vs None p=1.000)	sensitivity of cell lines by expression of DNA repair genes ([8]; top 25% highest vs bottom 25% lowest expression)
CC[C@H](C)n1cc(C)c2c(C(=O)NCc3c(C)cc(C)[nH]c3=O)cc(-c3ccc(N4CCNCC4)nc3)cc21 [GSK126]	non-existent	significantly retarded tumor growth	consistent decrease	drastically delayed DNA damage repair	became much more sensitive to IR	a large number of genes were significantly downregulated	reduced total H3K27 di- and tri-methylation levels in a dose-dependent manner	very minor	upregulated EZH2-repressed genes to some extent	minimal	largely de-repressed genes		
C[C@H]1CN([C@@H](C)CO)S(=O)(=O)c2ccc(C#CCC3CCCC3)cc2O[C@@H]1CN(C)Cc1ccc(C(=O)O)cc1 [BRD]												does not show higher potency	much more susceptible
CCN(c1cc(-c2ccc(CN3CCOCC3)cc2)cc(C(=O)NCc2c(C)cc(C)[nH]c2=O)c1C)C1CCOCC1 [EPZ-6438]						a large number of genes were significantly downregulated	reduced total H3K27 di- and tri-methylation levels in a dose-dependent manner		upregulated EZH2-repressed genes to some extent	minimal	largely de-repressed genes		

Reference: US20220401452A1, “USE OF INHIBITORS OF ENHANCER OF ZESTE HOMOLOG 2” (The Board Of Regents of The University of Texas System, priority 2019, published 2022)
